Measured values taken from patent publication EP4725957A1, “GROUP OF CYCLIC ALKALINE LIPOPEPTIDE COMPOUNDS, AND PREPARATION METHOD THEREFOR AND USE THEREOF” (Institute of Medicinal Biotechnology, Chinese Academy of …, priority 2023, dated 2024).
≈ marks a conversion by molar mass, not a printed value. Bridge positions count the residues as written; N and C are the ends. Square brackets hold non-standard residues; d marks the D form. Peptide text beside a SMILES is read from it. * marks the point of attachment. Heptanoyl(6-Me) = CC(C)CCCCC(=O)*; X1 = CC[C@H](C)CCCCC(=O)*; dDab = NCC[C@@H](N)C(=O)O; Heptanoyl = CCCCCCC(=O)*; Octanoyl = CCCCCCCC(=O)*; Orn = NCCC[C@H](N)C(=O)O; Dab = NCC[C@H](N)C(=O)O; Dap = NC[C@H](N)C(=O)O

Experiments:
Type in all cases: cell-based
[1] = system: Acinetobacter baumannii ABA19-1; details: ABA19-1
In short: (§1)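 The MIC value comes from CLSI broth microdilution after 16-20 h at 35-37°C. Cyclic lipopeptides in Mueller-Hinton broth spanned 64 to 0.03 mg/L final, with each well carrying (2-4) × 10^5 CFU/mL.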

[2] = system: Acinetobacter baumannii NCTC 13304 (OXA-27); details: NCTC 13304
In short: as §1

[3] = system: Escherichia coli ATCC BAA-2340 (KPC); details: ATCC BAA-2340
In short: as §1

[4] = system: Escherichia coli ATCC BAA-2523; details: ATCC BAA-2523
In short: as §1

[5] = system: Klebsiella pneumoniae ATCC BAA-1705 (KPC); details: ATCC BAA-1705
In short: as §1

[6] = system: Klebsiella pneumoniae KPN+19-15; details: KPN+19-15
In short: as §1

[7] = system: Pseudomonas aeruginosa ATCC 27853; details: ATCC 27853
In short: as §1

[8] = system: Pseudomonas aeruginosa PAE19-3; details: PAE19-3
In short: as §1

[9] = Nephrotoxicity assay: in vitro cytotoxicity of HK-2 cells by CCK-8 assay; details: human, HK-2 cells (human renal), 72 h incubation with drug-containing medium
In short: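 Compounds in sterile water, diluted to final 500, 250, 200, 100, 50, 25 and 12.5 µg/mL, were applied for 72 h to human HK-2 kidney cells. Absorbance at 450 nm after 3 h CCK-8 gave viability against untreated wells, and IC50 came from logarithmic regression; three replicates.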

Compound	MIC [1]	MIC [2]	MIC [3]	MIC [4]	MIC [5]	MIC [6]	MIC [7]	MIC [8]	IC50 at 72 h [9]
CC[C@H](C)CCCCC(=O)N[C@@H](CCN)C(=O)N[C@H](C(=O)N[C@H](CO)C(=O)N[C@H]1CCNC(=O)[C@H]([C@@H](C)O)NC(=O)[C@H](CCN)NC(=O)[C@H](CCN)NC(=O)[C@H]([C@@H](C)O)NC(=O)[C@@H](Cc2ccccc2)NC(=O)[C@H](CCCN)NC1=O)[C@@H](C)O [Compound 66, (S)-6-methyloctanoyl-Dab-Thr-D-Ser-ring(4-10)[Dab-Orn-D-Phe-Thr-Dab-Dab-Thr]] (X1-[Dab]T[dS][Dab][Orn][dF]T[Dab][Dab]T; lactam 4-C)	0.25 µg/mL (≈ 0.21 µM)	0.25 µg/mL (≈ 0.21 µM)	0.125 µg/mL (≈ 0.105 µM)	0.125 µg/mL (≈ 0.105 µM)	0.25 µg/mL (≈ 0.21 µM)	0.5 µg/mL (≈ 0.419 µM)	64 µg/mL (≈ 53.7 µM)	4 µg/mL (≈ 3.35 µM)	> 500 µg/mL
CC[C@H](C)CCCCC(=O)N[C@@H](CCN)C(=O)N[C@H](C(=O)N[C@@H](CN)C(=O)N[C@H]1CCNC(=O)[C@H]([C@@H](C)O)NC(=O)[C@H](CCN)NC(=O)[C@H](CCN)NC(=O)[C@H](CC(C)C)NC(=O)[C@@H](Cc2ccccc2)NC(=O)[C@H](CCN)NC1=O)[C@@H](C)O [Compound 36, (S)-6-methyloctanoyl-Dab-Thr-Dap-ring(4-10)[Dab-Dab-D-Phe-Leu-Dab-Dab-Thr]] (X1-[Dab]T[Dap][Dab][Dab][dF]L[Dab][Dab]T; lactam 4-C)	0.03 µg/mL (≈ 0.0252 µM)	0.03 µg/mL (≈ 0.0252 µM)	0.03 µg/mL (≈ 0.0252 µM)	0.03 µg/mL (≈ 0.0252 µM)	0.03 µg/mL (≈ 0.0252 µM)	0.03 µg/mL (≈ 0.0252 µM)	0.03 µg/mL (≈ 0.0252 µM)	0.25 µg/mL (≈ 0.21 µM)	237 ± 5.3 µg/mL (≈ 199 µM)
CCCCCCCC(=O)N[C@@H](CCN)C(=O)N[C@H](C(=O)N[C@@H](CCCN)C(=O)N[C@H]1CCNC(=O)[C@H]([C@@H](C)O)NC(=O)[C@H](CCN)NC(=O)[C@H](CCN)NC(=O)[C@H](CC(C)C)NC(=O)[C@@H](Cc2ccccc2)NC(=O)[C@H](CCN)NC1=O)[C@@H](C)O [Compound 48, Octanoyl-Dab-Thr-Orn-ring(4-10)[Dab-Dab-D-Phe-Leu-Dab-Dab-Thr]] (Octanoyl-[Dab]T[Orn][Dab][Dab][dF]L[Dab][Dab]T; lactam 4-C)	0.125 µg/mL (≈ 0.104 µM)	0.06 µg/mL (≈ 0.0499 µM)	0.03 µg/mL (≈ 0.0249 µM)	0.03 µg/mL (≈ 0.0249 µM)	≤0.03 µg/mL	≤0.03 µg/mL	≤0.03 µg/mL	0.25 µg/mL (≈ 0.208 µM)	239 ± 7.4 µg/mL (≈ 199 µM)
CCCCCCCC(=O)N[C@@H](CCCN)C(=O)N[C@H](C(=O)N[C@H](CO)C(=O)N[C@H]1CCNC(=O)[C@H]([C@@H](C)O)NC(=O)[C@H](CCN)NC(=O)[C@H](CCN)NC(=O)[C@H]([C@@H](C)O)NC(=O)[C@@H](Cc2ccccc2)NC(=O)[C@H](CCN)NC1=O)[C@@H](C)O [Compound 58, Octanoyl-Orn-Thr-D-Ser-ring(4-10)[Dab-Dab-D-Phe-Thr-Dab-Dab-Thr]] (Octanoyl-[Orn]T[dS][Dab][Dab][dF]T[Dab][Dab]T; lactam 4-C)	0.25 µg/mL (≈ 0.212 µM)	0.25 µg/mL (≈ 0.212 µM)	0.125 µg/mL (≈ 0.106 µM)	0.125 µg/mL (≈ 0.106 µM)	0.25 µg/mL (≈ 0.212 µM)	0.5 µg/mL (≈ 0.424 µM)	64 µg/mL (≈ 54.3 µM)	4 µg/mL (≈ 3.39 µM)	> 500 µg/mL
CC(C)CCCCC(=O)N[C@@H](CCN)C(=O)N[C@H](C(=O)N[C@H](CO)C(=O)N[C@H]1CCNC(=O)[C@H]([C@@H](C)O)NC(=O)[C@H](CN)NC(=O)[C@H](CCN)NC(=O)[C@H]([C@@H](C)O)NC(=O)[C@@H](Cc2ccccc2)NC(=O)[C@H](CCN)NC1=O)[C@@H](C)O [Compound 82, 6-methylheptanoyl-Dab-Thr-D-Ser-ring(4-10)[Dab-Dab-D-Phe-Thr-Dab-Dap-Thr]] ({Heptanoyl(6-Me)}-[Dab]T[dS][Dab][Dab][dF]T[Dab][Dap]T; lactam 4-C)	0.06 µg/mL (≈ 0.0522 µM)	≤0.03 µg/mL	0.03 µg/mL (≈ 0.0261 µM)	0.03 µg/mL (≈ 0.0261 µM)	0.25 µg/mL (≈ 0.217 µM)	0.5 µg/mL (≈ 0.435 µM)	>64 µg/mL	64 µg/mL (≈ 55.6 µM)	> 500 µg/mL
CC[C@H](C)CCCCC(=O)N[C@@H](CCN)C(=O)N[C@H](C(=O)N[C@@H](CN)C(=O)N[C@H]1CCNC(=O)[C@H]([C@@H](C)O)NC(=O)[C@H](CCN)NC(=O)[C@H](CCN)NC(=O)[C@H]([C@@H](C)O)NC(=O)[C@@H](Cc2ccccc2)NC(=O)[C@H](CCN)NC1=O)[C@@H](C)O [Compound 6, (S)-6-methyloctanoyl-Dab-Thr-Dap-ring(4-10)[Dab-Dab-D-Phe-Thr-Dab-Dab-Thr]] (X1-[Dab]T[Dap][Dab][Dab][dF]T[Dab][Dab]T; lactam 4-C)	≤0.03 µg/mL	≤0.03 µg/mL	≤0.03 µg/mL	≤0.03 µg/mL	≤0.03 µg/mL	≤0.03 µg/mL	0.03 µg/mL (≈ 0.0255 µM)	0.125 µg/mL (≈ 0.106 µM)	> 500 µg/mL
CCCCCCCC(=O)N[C@@H](CCN)C(=O)N[C@H](C(=O)N[C@H](CO)C(=O)N[C@H]1CCNC(=O)[C@H]([C@@H](C)O)NC(=O)[C@H](CN)NC(=O)[C@H](CCN)NC(=O)[C@H]([C@@H](C)O)NC(=O)[C@@H](Cc2ccccc2)NC(=O)[C@H](CCN)NC1=O)[C@@H](C)O [Compound 83, Octanoyl-Dab-Thr-D-Ser-ring(4-10)[Dab-Dab-D-Phe-Thr-Dab-Dap-Thr]] (Octanoyl-[Dab]T[dS][Dab][Dab][dF]T[Dab][Dap]T; lactam 4-C)	0.06 µg/mL (≈ 0.0522 µM)	≤0.03 µg/mL	0.06 µg/mL (≈ 0.0522 µM)	0.06 µg/mL (≈ 0.0522 µM)	0.25 µg/mL (≈ 0.217 µM)	0.5 µg/mL (≈ 0.435 µM)	>64 µg/mL	64 µg/mL (≈ 55.6 µM)	> 500 µg/mL
CCCCCCCC(=O)N[C@@H](CCN)C(=O)N[C@H](C(=O)N[C@H](CO)C(=O)N[C@H]1CCNC(=O)[C@H]([C@@H](C)O)NC(=O)[C@H](CCN)NC(=O)[C@H](CCN)NC(=O)[C@H]([C@@H](C)O)NC(=O)[C@@H](Cc2ccccc2)NC(=O)[C@H](CCCN)NC1=O)[C@@H](C)O [Compound 68, Octanoyl-Dab-Thr-D-Ser-ring(4-10)[Dab-Orn-D-Phe-Thr-Dab-Dab-Thr]] (Octanoyl-[Dab]T[dS][Dab][Orn][dF]T[Dab][Dab]T; lactam 4-C)	0.25 µg/mL (≈ 0.212 µM)	0.25 µg/mL (≈ 0.212 µM)	0.25 µg/mL (≈ 0.212 µM)	0.25 µg/mL (≈ 0.212 µM)	0.25 µg/mL (≈ 0.212 µM)	0.5 µg/mL (≈ 0.424 µM)	64 µg/mL (≈ 54.3 µM)	4 µg/mL (≈ 3.39 µM)	> 500 µg/mL
CCCCCCC(=O)N[C@@H](CCN)C(=O)N[C@H](C(=O)N[C@@H](CN)C(=O)N[C@H]1CCNC(=O)[C@H]([C@@H](C)O)NC(=O)[C@H](CCN)NC(=O)[C@H](CCN)NC(=O)[C@H](CC(C)C)NC(=O)[C@@H](Cc2ccccc2)NC(=O)[C@H](CCN)NC1=O)[C@@H](C)O [Compound 39, Heptanoyl-Dab-Thr-Dap-ring(4-10)[Dab-Dab-D-Phe-Leu-Dab-Dab-Thr]] (Heptanoyl-[Dab]T[Dap][Dab][Dab][dF]L[Dab][Dab]T; lactam 4-C)	0.03 µg/mL (≈ 0.0258 µM)	0.03 µg/mL (≈ 0.0258 µM)	0.03 µg/mL (≈ 0.0258 µM)	0.03 µg/mL (≈ 0.0258 µM)	0.03 µg/mL (≈ 0.0258 µM)	0.03 µg/mL (≈ 0.0258 µM)	0.06 µg/mL (≈ 0.0517 µM)	0.5 µg/mL (≈ 0.431 µM)	357 ± 8.1 µg/mL (≈ 307 µM)
CC(C)CCCCC(=O)N[C@@H](CCN)C(=O)N[C@H](C(=O)N[C@H](CO)C(=O)N[C@H]1CCNC(=O)[C@H]([C@@H](C)O)NC(=O)[C@H](CCN)NC(=O)[C@H](CCN)NC(=O)[C@H]([C@@H](C)O)NC(=O)[C@@H](Cc2ccccc2)NC(=O)[C@H](CN)NC1=O)[C@@H](C)O [Compound 62, 6-methylheptanoyl-Dab-Thr-D-Ser-ring(4-10)[Dab-Dap-D-Phe-Thr-Dab-Dab-Thr]] ({Heptanoyl(6-Me)}-[Dab]T[dS][Dab][Dap][dF]T[Dab][Dab]T; lactam 4-C)	0.25 µg/mL (≈ 0.217 µM)	0.25 µg/mL (≈ 0.217 µM)	0.06 µg/mL (≈ 0.0522 µM)	0.06 µg/mL (≈ 0.0522 µM)	0.25 µg/mL (≈ 0.217 µM)	0.5 µg/mL (≈ 0.435 µM)	64 µg/mL (≈ 55.6 µM)	4 µg/mL (≈ 3.48 µM)	> 500 µg/mL
CCCCCCC(=O)N[C@@H](CCN)C(=O)N[C@H](C(=O)N[C@H](CCN)C(=O)N[C@H]1CCNC(=O)[C@H]([C@@H](C)O)NC(=O)[C@H](CCN)NC(=O)[C@H](CCN)NC(=O)[C@H]([C@@H](C)O)NC(=O)[C@@H](Cc2ccccc2)NC(=O)[C@H](CCN)NC1=O)[C@@H](C)O [Compound 14, Heptanoyl-Dab-Thr-D-Dab-ring(4-10)[Dab-Dab-D-Phe-Thr-Dab-Dab-Thr]] (Heptanoyl-[Dab]T[dDab][Dab][Dab][dF]T[Dab][Dab]T; lactam 4-C)	0.03 µg/mL (≈ 0.0258 µM)	0.03 µg/mL (≈ 0.0258 µM)	0.03 µg/mL (≈ 0.0258 µM)	0.03 µg/mL (≈ 0.0258 µM)	0.06 µg/mL (≈ 0.0516 µM)	0.03 µg/mL (≈ 0.0258 µM)	2 µg/mL (≈ 1.72 µM)	2 µg/mL (≈ 1.72 µM)	> 500 µg/mL
